Experimental data from patent US20240197823A1, “CATIONIC ANTIMICROBIAL PEPTIDES AND USES THEREOF” (priority 2021, published 2024).
Values after ≈ are worked out from the molar mass of the structure shown. Where two headings read alike, the source gives them in different places. Blank lines part the entries; values can stand above or below the molecule they belong to.

Columns and labels:
[1] = test system: S. aureus; assay: MIC growth inhibition assay in MHB2; type: cell-based, Staphylococcus aureus
Description: (§1) Bacteria. Bacterial clinical isolates, used for initial screening and in previous studies [Greber K E et al., 2017], were anonymously provided by the clinical microbiology laboratory of the University of Pittsburgh medical Center. The panel used for secondary screening was from CDC (Table 4), with resistance profiles data. Bacteria are stored in lock-secured −80° C. freezer and typically retrieved by obtaining single colonies on agar plates prior for subsequent liquid broth cultures. Suspensions of test bacteria were prepared from log phase of growth by diluting overnight cultures at 1:100 with fresh cation-adjusted MHB (MHB2, Millipore Sigma, USA) and incubating for additional 3-4 hours. Bacteria were spun at 3000×g for 10 minutes and the pellet resuspended in test condition media (Millipore Sigma, USA) to determine bacterial turbidity using a Den-1B densitometer (Grant Instruments, USA) at 0.5 McFarland (unit of bacterial density) corresponding to […].
(§2) Antibacterial assays. To examine antibacterial activity, this study used minor modifications of a standard growth inhibition assay endorsed by the Clinical and Laboratory Standards Institute (CLSI), as previously described [Greber K E et al., 2017]. Bacteria were incubated with each of the indicated peptides in MHB2. The bacterial cells were kept in an incubator for 18 hours at 37° C., which is linked to a robotic system that feeds a plate reader every hour with one of 8×96-well plates. This set-up allows the collection of growth kinetic data at A 570 (absorbance at 570 nm) to examine growth inhibition in real time (BioTek Instruments, USA). […] To assess bactericidal properties of the peptide, the assay was modified by using 15% fetal bovine serum (FBS, for a more physiologically relevant test condition) mixed with 25% MHB2 and 60% PBS. Bacterial cells (colony forming unit/mL or CFU/mL) were enumerated after incubating treated bacteria for 3 hours and plating serially diluted samples on broth agar medium at 37° C. overnight. […] For killing kinetics, we slightly modified the bactericidal assay to examine bacterial killing at the MBC (or 2×MBC) as a function of time for up to 3 hours. Data were analyzed using GraphPad Prism software.

[2] = test system: E. Faecium; assay: MIC growth inhibition assay in MHB2; type: cell-based, Enterococcus faecium
Description: as §1, §2

[3] = test system: A. baumannii; assay: microbe, parasite or virus in culture
Description: as §1, §2

[4] = test system: E. coli; assay: microbe, parasite or virus in culture
Description: as §1, §2

[5] = test system: P. aeruginosa; assay: microbe, parasite or virus in culture
Description: as §1, §2

[6] = test system: Enterobacter spp; assay: MIC growth inhibition assay in MHB2; type: cell-based, Enterobacter spp: EA (aerogenes), EC (cloacae)
Description: as §1, §2

[7] = test system: K. pneumoniae; assay: MIC growth inhibition assay in MHB2; type: cell-based, klebsiella pneumoniae; settings: read-out: MIC
Description: as §1, §2

[8] = test system: MDR panel of gram-negative (GNB) and -positive (GPB) bacterial isolates classified as ESKAPE pathogens
Description: as §1
Antibacterial assays. To examine antibacterial activity, this study used minor modifications of a standard growth inhibition assay endorsed by the Clinical and Laboratory Standards Institute (CLSI), as previously described [Greber K E et al., 2017]. Bacteria were incubated with each of the indicated peptides in MHB2. The bacterial cells were kept in an incubator for 18 hours at 37° C., which is linked to a robotic system that feeds a plate reader every hour with one of 8×96-well plates. This set-up allows the collection of growth kinetic data at A 570 (absorbance at 570 nm) to examine growth inhibition in real time (BioTek Instruments, USA). […] To assess bactericidal properties of the peptide, the assay was modified by using 15% fetal bovine serum (FBS, for a more physiologically relevant test condition) mixed with 25% MHB2 and 60% PBS. Bacterial cells (colony forming unit/mL or CFU/mL) were enumerated after incubating treated bacteria for 3 hours and plating serially diluted samples on broth agar medium at 37° C. overnight. […] Data were analyzed using GraphPad Prism software.

[9] = test system: human red blood cells; settings: at 16 μM, published data; cited from earlier work

MIC ([1]; strain SA12212): 8 µM (≈ 3.21 µg/mL) | MIC ([1]; strain SA18710): 4 µM (≈ 1.61 µg/mL) | MIC ([1]; strain SA49775): 0.25 µM (≈ 0.1 µg/mL) | MIC ([1]; strain SA-US300): 4 µM (≈ 1.61 µg/mL) | MIC ([2]; strain EF23614): 0.25 µM (≈ 0.1 µg/mL) | MIC ([2]; strain EF24670): >16 µM | MIC ([2]; strain EF26215): 2 µM (≈ 0.803 µg/mL) | MIC ([2]; strain EF26692): 2 µM (≈ 0.803 µg/mL)
Molecule: Cc1onc(-c2ccccc2)c1C(=O)N[C@@H]1C(=O)N2[C@@H]1SC(C)(C)[C@@H]2C(=O)O [Oxa]

MIC ([3]; strain AB-A2): 0.5 µM (≈ 0.234 µg/mL) | MIC ([3]; strain AB-A3): 16 µM (≈ 7.48 µg/mL) | MIC ([3]; strain AB-F8): >16 µM | MIC ([3]; strain AB-F9): 2 µM (≈ 0.935 µg/mL) | MIC ([4]; strain YDC337): >16 µM | MIC ([4]; strain YDC748): 16 µM (≈ 7.48 µg/mL) | MIC ([5]; strain PA01): 1 µM (≈ 0.468 µg/mL) | MIC ([5]; strain PA14): 0.5 µM (≈ 0.234 µg/mL) | MIC ([5]; strain PA97-5): >16 µM | MIC ([5]; strain PA129-5): 16 µM (≈ 7.48 µg/mL) | MIC ([6]; strain EA518 (aerogenes)): >16 µM | MIC ([6]; strain EA596 (aerogenes)): >16 µM | MIC ([6]; strain EC470 (cloacae)): 4 µM (≈ 1.87 µg/mL) | MIC ([6]; strain EC560 (cloacae)): >16 µM | MIC ([7]; strain KPA5): >16 µM | MIC ([7]; strain KPB3): >16 µM
Molecule: NC[C@H]1O[C@H](O[C@H]2[C@H](O)[C@@H](O[C@H]3O[C@H](CO)[C@@H](O)[C@H](N)[C@H]3O)[C@H](N)C[C@@H]2N)[C@H](N)C[C@@H]1O [Tob]

mean MIC [8]: > 10 µM
Molecule: CC(C)C[C@H](NC(=O)[C@H](Cc1ccccc1)NC(=O)[C@@H]1CCCN1C(=O)[C@H](Cc1c[nH]c2ccccc12)NC(=O)[C@H](Cc1c[nH]c2ccccc12)NC(=O)[C@H](Cc1c[nH]c2ccccc12)NC(=O)[C@@H]1CCCN1C(=O)[C@H](Cc1ccccc1)NC(=O)[C@H](CCCNC(=N)N)NC(=O)[C@H](CCCNC(=N)N)NC(=O)[C@@H](N)C(C)C)C(=O)N[C@@H](CCCNC(=N)N)C(=O)N[C@@H](CCCNC(=N)N)C(=O)O [tritrpticin]

Molecule: Ac-LKRVWKRVFKLLKRYWRQLKKPVR-NH2 [SAAP-148]
red blood cell (RBC) lysis [9]: only moderate
